Reference: patent publication US20080021106A1, “CELLULAR UPTAKE OF BIOACTIVE AGENTS” (Aesgen, Inc., priority 1999, published 2008)
Where two headings read alike, the source gives them in different places. One block for each compound: values may come before it. Where a SMILES comes first, the peptide text is derived from it. [ ]: non-standard residue; d: D form. Sar = CNCC(=O)O

Tests used:
Caco-2 cell monolayers [1] = test system: Caco-2 cell monolayers
Experimental: (§1) Uptake and permeability of each compound was measured in the apical-to-basolateral direction, with and without vehicle.
(§2) Each compound was tritiated. ^14C-mannitol was used as an evaluation of monolayer/cell integrity (i.e. as a low uptake/permeability marker).
(§3) Uptake and Permeability Assessments. Compound cellular uptake into and permeability across Caco-2 monolayers was measured.
(§4) Monolayer integrity was monitored using ^14C-mannitol permeability. Mannitol uptake was also studied.
(§5) ^14C-mannitol and ^3H-drugs were quantified by liquid scintillation counting. For uptake studies, at designated time points (10 sec, 60 sec, and 5 min), the donor solution was aspirated off. The cell monolayer was washed twice with ice cold HBSS to remove any residual binding and then dissolved in 1 ml of the cell solubilizing agent, Solvable®. The cell lysate (0.5 ml) was added to 5 ml scintillation cocktail (Econosafe®) and counted on liquid scintillation counter (Beckman LS5801, Columbia, Md.). For permeability studies, 0.5 ml of received solution was added to 5 ml scintillation cocktail (Econosafe®) and counted on liquid scintillation counter.
(§6) Permeability (3) in each experiment was calculated (FIG. 8-12) using eq 1: [formula] where P is permeability, dM/dt is rate of drug mass accumulation (i.e., radioactivity) in receiver compartment, A is area, and Cd is donor drug concentration (i.e., radioactivity). […] Permeability is an absolute measure (units of cm/Sec or velocity) and can be determined even though the absolute drug concentrations were not known.

Caco-2 cell monolayers [2] = test system: Caco-2 cell monolayers; remark: listed apart in the source
Experimental: as §1, §2, §3, §4, §5
(§7) Since saturated solutions of unknown concentration of drugs were used, absolute uptake could not be calculated.

Caco-2 cell monolayers [3] = experiment: Cellular uptake of tritiated drugs and 14C-mannitol into Caco-2 monolayers, with and without vehicle; conditions: saturated solutions, AES-14 / blank AES-14 vs HBSS, up to 5 min
Experimental: as §1, §2, §3, §4, §5, §7

Caco-2 cell monolayers [4] = experiment: Caco-2 permeability, apical to basolateral, with and without vehicle; conditions: no vehicle vs with vehicle, 5 min period (FIG. 8-12)
Experimental: as §1, §2, §3, §4, §5, §6

- effect of Aesgen-14 vehicle on Caco-2 permeability (in words) (Caco-2 cell monolayers [1]): no effect
SMILES: NC(=O)C[C@H](N)C(=O)O [L-asparagine]

- effect of Aesgen-14 vehicle on Caco-2 permeability (in words) (Caco-2 cell monolayers [1]): no effect
SMILES: NC(=O)CC[C@H](N)C(=O)O [L-glutamine]
- enhancement of cellular uptake by vehicle (Caco-2 cell monolayers [2]): To perhaps a lesser extent, vehicle enhanced

- effect of vehicle on mannitol permeability (in words) (Caco-2 cell monolayers [1]): no effect
- effect of vehicle on mannitol relative uptake (in words) (Caco-2 cell monolayers [2]): no effect
SMILES: OC[C@@H](O)[C@@H](O)[C@H](O)[C@H](O)CO [Mannitol, mannitol]

- effect of Aesgen-14 vehicle on Caco-2 permeability (in words) (Caco-2 cell monolayers [4]): no effect
SMILES: CN(CC(=O)O)C(=O)CN [glycylsarcosine] (H-Gly-[Sar]-OH)
- enhancement of cellular drug uptake by vehicle (relative uptake vehicle vs HBSS) (Caco-2 cell monolayers [3]): about four-fold
